{
  "source": "patent US5281602A",
  "about": "“Angiotensin II receptor blocking 2,3,6-substituted 5,6,7,8-tetrahydro-pyrido[4,3-D]pyrimidin-4(3H)-ones” (American Cyanamid Company, priority 1993, dated 1994)",
  "key": {"[1]": {"tested_on": "ANGIOTENSIN II (A11) VASOPRESSOR RESPONSE", "assay": "AII Challenge: blockade of angiotensin II vasopressor response in conscious SHR", "format": "in vivo, rat (Conscious Male Okamoto-Aoki SHR)", "conditions": "for Change (single reading, systolic blood pressure) / Response After A11 (systolic blood pressure) / Control Before A11 (systolic blood pressure): 15 mg/kg", "excerpt": "By administering a compound of this invention to a rat, and then challenging with angiotensin II, a blockage of the vasopressor response is realized.\nConscious Male Okamoto-Aoki SHR, 16-20 weeks old, weighing approximately 330 g are purchased from Charles River Labs (Wilmington, Mass.). Conscious rats are restrained in a supine position with elastic tape. The area at the base of the tail is locally anesthetized by subcutaneous infiltration with 2% procaine. The ventral caudal artery and vein are isolated, and a cannula made of polyethylene (PE) 10-20 tubing (fused together by heat) is passed into the lower abdominal aorta and vena cava, respectively. The cannula is secured, heparinized (1,000 I.U./ml), sealed and the wound is closed. The animals are placed in plastic restraining cages in an upright position. The cannula is attached to a Statham P23Db pressure transducer, and pulsatile blood pressure is recorded to 10-15 minutes with a Gould Brush recorder. (Chan et al., (Drug Development Res., 18:75-94, 1989).\nAngiotensin II (human sequence, Sigma Chem. Co., St. Louis, Mo.) of 0.05 and 0.1 ug/kg i.v. is injected into all rats (predosing response). Then a test compound, vehicle or a known angiotensin II antagonist is administered i.v., i.p. or orally to each set of rats. […] The vasopressor response of angiotensin II is measured for the increase in systolic blood pressure in mmHg. The percentage of antagonism or blockade of the vasopressor response of angiotensin II by a compound is calculated using the vasopressor response (increase in systolic blood pressure) of angiotensin II of each rat predosing the compound as 100%. A compound is considered active if at 30 mg/kg i.v. it antagonized at least 50% of the response."}, "Angiotension II Receptor": {"target": "Angiotension II Receptor", "assay": "Receptor Binding Assay: competition with [^125 I] (Sar^1,Ile^8) AngII on microsomal membranes", "conditions": "pH 7.4, 60 min, room temperature", "protocol": "Binding of [^125 I] (Sar^1,Ile^8) AngII\nThe binding of [^125 I] (Sar^1,Ile^8) AngII to microsomal membranes is initiated by the addition of reconstituted membranes (1:10 vols.) in freshly made 50.0 mMTris.HCl buffer, pH 7.4 containing 0.25% heat inactivated bovine serum albumin (BSA):80 ul membrane protein (10 to 20 ug/assay) to wells already containing 100 ul of incubation buffer (as described above) and 20 ul [^125 I] (Sar^1,Ile^8) AngII (Specific Activity, 2200 Ci/mmole). Non-specific binding is measured in the presence of 1.0 uM unlabeled (Sar^1,Ile^8) AngII, added in 20 ul volume. Specific binding for [^125 I] (Sar^1,Ile^8) AngII is greater than 90%. In competition studies, experimental compounds are diluted in dimethylsulfoxide (DMSO) and added in 20 ul to wells before the introduction of tissue membranes. This concentration of DMSO is found to have no negative effects on the binding of [^125 I] (Sar^1,Ile^8) AngII to the membranes. Assays are performed in triplicate. […] Presoaking the filter sheet in 0.1% polyethylenemine in normal saline (PEI/Saline) greatly reduces the radioactivity retained by the filter blanks. […] The filters are removed from the filter grid and counted in a Parkard® Cobra Gamma Counter for 1 min. […] The binding data are analyzed by the non-linear interactive \"LUNDON-1\" program (LUNDON SOFTWARE Inc., Cleveland, Ohio U.S.A.). […]"}, "[2]": {"conditions": "15 mg/kg IV (single), AII 0.05 mcg/kg IV, 120 min post dose"}, "[3]": {"conditions": "15 mg/kg IV (single), AII 0.05 mcg/kg IV, 180 min post dose"}, "[4]": {"conditions": "15 mg/kg IV (single), AII 0.1 mcg/kg IV, 120 min post dose"}, "[5]": {"conditions": "15 mg/kg IV (single), AII 0.1 mcg/kg IV, 180 min post dose"}, "[6]": {"conditions": "15 mg/kg IV, AII 0.05 mcg/kg IV, 30 min post dose"}, "[7]": {"conditions": "15 mg/kg IV, AII 0.05 mcg/kg IV, 60 min post dose"}, "[8]": {"conditions": "15 mg/kg IV, AII 0.05 mcg/kg IV, 90 min post dose"}, "[9]": {"conditions": "15 mg/kg IV, AII 0.1 mcg/kg IV, 30 min post dose"}, "[10]": {"conditions": "15 mg/kg IV, AII 0.1 mcg/kg IV, 60 min post dose"}, "[11]": {"conditions": "15 mg/kg IV, AII 0.1 mcg/kg IV, 90 min post dose"}},
  "note": "Where “and” joins values, the source holds several entries; their conditions need not be identical. Equal values may be shown once.",
  "data": [
    {"smiles": "CCCCc1nc2c(c(=O)n1Cc1ccc(-c3ccccc3-c3nnn[nH]3)cc1)CN(C(=O)C(C)(C)O)CC2", "note": "[Example 16]", "values": [
      {"measurement": "Average % Inhibition (angiotensin blockage) of AII vasopressor response", "setting": "[1]; [2]", "value": 39, "unit": "%"},
      {"measurement": "Average Change (systolic blood pressure response to AII)", "setting": "[1]; [2]", "value": 27.5, "unit": "mmHg"},
      {"measurement": "Change (single reading, systolic blood pressure)", "setting": "[1]; [2]", "value": "35 mmHg and 20 mmHg"},
      {"measurement": "Average % Inhibition (angiotensin blockage) of AII vasopressor response", "setting": "[1]; [3]", "value": 6, "unit": "%"},
      {"measurement": "Average Change (systolic blood pressure response to AII)", "setting": "[1]; [3]", "value": 42.5, "unit": "mmHg"},
      {"measurement": "Change (single reading, systolic blood pressure)", "setting": "[1]; [3]", "value": "55 mmHg and 30 mmHg"},
      {"measurement": "Average % Inhibition (angiotensin blockage) of AII vasopressor response", "setting": "[1]; [4]", "value": 35, "unit": "%"},
      {"measurement": "Average Change (systolic blood pressure response to AII)", "setting": "[1]; [4]", "value": 32.5, "unit": "mmHg"},
      {"measurement": "Change (single reading, systolic blood pressure)", "setting": "[1]; [4]", "value": "40 mmHg and 25 mmHg"},
      {"measurement": "Average % Inhibition (angiotensin blockage) of AII vasopressor response", "setting": "[1]; [5]", "value": 5, "unit": "%"},
      {"measurement": "Average Change (systolic blood pressure response to AII)", "setting": "[1]; [5]", "value": 47.5, "unit": "mmHg"},
      {"measurement": "Change (single reading, systolic blood pressure)", "setting": "[1]; [5]", "value": "50 mmHg and 45 mmHg"},
      {"measurement": "Response After A11 (systolic blood pressure)", "setting": "[1]; 15 mg/kg IV (single), after AII 0.05 mcg/kg IV, 120 min post dose", "value": "245 mmHg and 195 mmHg"},
      {"measurement": "Response After A11 (systolic blood pressure)", "setting": "[1]; 15 mg/kg IV (single), after AII 0.05 mcg/kg IV, 180 min post dose", "value": "230 mmHg and 195 mmHg"},
      {"measurement": "Response After A11 (systolic blood pressure)", "setting": "[1]; 15 mg/kg IV (single), after AII 0.1 mcg/kg IV, 120 min post dose", "value": "240 mmHg and 200 mmHg"},
      {"measurement": "Response After A11 (systolic blood pressure)", "setting": "[1]; 15 mg/kg IV (single), after AII 0.1 mcg/kg IV, 180 min post dose", "value": "260 mmHg and 210 mmHg"},
      {"measurement": "Control Before A11 (systolic blood pressure)", "setting": "[1]; 15 mg/kg IV (single), before AII 0.05 mcg/kg IV, 120 min post dose", "value": "210 mmHg and 175 mmHg"},
      {"measurement": "Control Before A11 (systolic blood pressure)", "setting": "[1]; 15 mg/kg IV (single), before AII 0.05 mcg/kg IV, 180 min post dose", "value": "175 mmHg and 165 mmHg"},
      {"measurement": "Control Before A11 (systolic blood pressure)", "setting": "[1]; 15 mg/kg IV (single), before AII 0.1 mcg/kg IV, 120 min post dose", "value": "200 mmHg and 175 mmHg"},
      {"measurement": "Control Before A11 (systolic blood pressure)", "setting": "[1]; 15 mg/kg IV (single), before AII 0.1 mcg/kg IV, 180 min post dose", "value": "210 mmHg and 165 mmHg"},
      {"measurement": "Average % Inhibition (angiotensin blockage) of AII vasopressor response", "setting": "[1]; [6]", "value": 72, "unit": "%"},
      {"measurement": "Average Change (systolic blood pressure response to AII)", "setting": "[1]; [6]", "value": 12.5, "unit": "mmHg"},
      {"measurement": "Change (single reading, systolic blood pressure)", "setting": "[1]; [6]", "value": "15 mmHg and 10 mmHg"},
      {"measurement": "Average % Inhibition (angiotensin blockage) of AII vasopressor response", "setting": "[1]; [7]", "value": 67, "unit": "%"},
      {"measurement": "Average Change (systolic blood pressure response to AII)", "setting": "[1]; [7]", "value": 15, "unit": "mmHg"},
      {"measurement": "Average % Inhibition (angiotensin blockage) of AII vasopressor response", "setting": "[1]; [8]", "value": 37, "unit": "%"},
      {"measurement": "Average Change (systolic blood pressure response to AII)", "setting": "[1]; [8]", "value": 28.5, "unit": "mmHg"},
      {"measurement": "Average % Inhibition (angiotensin blockage) of AII vasopressor response", "setting": "[1]; [9]", "value": 85, "unit": "%"},
      {"measurement": "Average Change (systolic blood pressure response to AII)", "setting": "[1]; [9]", "value": 7.5, "unit": "mmHg"},
      {"measurement": "Change (single reading, systolic blood pressure)", "setting": "[1]; [9]", "value": "10 mmHg and 5 mmHg"},
      {"measurement": "Average % Inhibition (angiotensin blockage) of AII vasopressor response", "setting": "[1]; [10]", "value": 57, "unit": "%"},
      {"measurement": "Average Change (systolic blood pressure response to AII)", "setting": "[1]; [10]", "value": 21.5, "unit": "mmHg"},
      {"measurement": "Average % Inhibition (angiotensin blockage) of AII vasopressor response", "setting": "[1]; [11]", "value": 33, "unit": "%"},
      {"measurement": "Average Change (systolic blood pressure response to AII)", "setting": "[1]; [11]", "value": 33.5, "unit": "mmHg"},
      {"measurement": "Change (single reading, systolic blood pressure)", "setting": "[1]; [11]", "value": "42 mmHg and 25 mmHg"},
      {"measurement": "Response After A11 (systolic blood pressure)", "setting": "[1]; 15 mg/kg IV, after AII 0.05 mcg/kg IV, 30 min post dose", "value": "210 mmHg and 185 mmHg"},
      {"measurement": "Response After A11 (systolic blood pressure)", "setting": "[1]; 15 mg/kg IV, after AII 0.05 mcg/kg IV, 60 min post dose", "value": "215 mmHg and 190 mmHg"},
      {"measurement": "Response After A11 (systolic blood pressure)", "setting": "[1]; 15 mg/kg IV, after AII 0.05 mcg/kg IV, 90 min post dose", "value": "225 mmHg and 190 mmHg"},
      {"measurement": "Response After A11 (systolic blood pressure)", "setting": "[1]; 15 mg/kg IV, after AII 0.1 mcg/kg IV, 30 min post dose", "value": "205 mmHg and 180 mmHg"},
      {"measurement": "Response After A11 (systolic blood pressure)", "setting": "[1]; 15 mg/kg IV, after AII 0.1 mcg/kg IV, 60 min post dose", "value": "220 mmHg and 188 mmHg"},
      {"measurement": "Response After A11 (systolic blood pressure)", "setting": "[1]; 15 mg/kg IV, after AII 0.1 mcg/kg IV, 90 min post dose", "value": "230 mmHg and 195 mmHg"},
      {"measurement": "Control Before A11 (systolic blood pressure)", "setting": "[1]; 15 mg/kg IV, before AII 0.05 mcg/kg IV, 30 min post dose", "value": "195 mmHg and 175 mmHg"},
      {"measurement": "Control Before A11 (systolic blood pressure)", "setting": "[1]; 15 mg/kg IV, before AII 0.05 mcg/kg IV, 60 min post dose", "value": "190 mmHg and 185 mmHg"},
      {"measurement": "Control Before A11 (systolic blood pressure)", "setting": "[1]; 15 mg/kg IV, before AII 0.05 mcg/kg IV, 90 min post dose", "value": "183 mmHg and 175 mmHg"},
      {"measurement": "Control Before A11 (systolic blood pressure)", "setting": "[1]; 15 mg/kg IV, before AII 0.1 mcg/kg IV, 30 min post dose", "value": "195 mmHg and 175 mmHg"},
      {"measurement": "Control Before A11 (systolic blood pressure)", "setting": "[1]; 15 mg/kg IV, before AII 0.1 mcg/kg IV, 60 min post dose", "value": "190 mmHg and 175 mmHg"},
      {"measurement": "Control Before A11 (systolic blood pressure)", "setting": "[1]; 15 mg/kg IV, before AII 0.1 mcg/kg IV, 90 min post dose", "value": "188 mmHg and 170 mmHg"},
      {"measurement": "IC50", "setting": "Angiotension II Receptor", "value": 0.6, "unit": "µM"}
    ]}
  ]
}
